Laboratory results taken from patent publication US9434687B2, “Detection of synthetic cannabinoids” (priority 2011, dated 2016).

Assays:
Type in all cases: binding, sheep
[1] = test system: IgG fraction of antiserum raised to Immunogen I; conditions: Antibody to Immunogen I; cross-reactants at 100 ng/ml; 1000 ng/ml; standard JWH-018
In short: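 Plates were coated with the IgG fraction of sheep antiserum raised to Immunogen I and incubated with standards (JWH-018, 0-40 ng/ml) plus hapten-HRP conjugate for 1 h at 25° C. Detection used TMB, read at 450 nm. IC50 was taken from a 4-parameter fit as the concentration giving half the zero-standard OD.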

[2] = test system: IgG fraction of antiserum raised to Immunogen II; experiment: Competitive ELISA, antibody RS1833B12 to Immunogen II, tracer ESC4555 (Example 36); conditions: Antibody to Immunogen II; cross-reactants at 100 ng/ml; 1000 ng/ml; standard JWH-018
Description: An aqueous solution of each immunogen was formulated with Freund's Complete Adjuvant (FCA) to form an emulsion consisting of 2 mg/ml*immunogen in 50% (v/v) FCA. Three sheep were immunised with this emulsion (1° immunisation), 0.25 ml being intramuscularly injected at each of four sites in the flank of each animal. Subsequent immunizations (boosts) contained 1 mg/ml*immunogen. All boosts were emulsified in 50% (v/v) Freund's Incomplete Adjuvant (FIA) and were administered in the same manner as the 1° immunisation, at monthly intervals. Blood sampling took place 7 to 14 days after each boost. *The general procedure for immunogen administration is outlined above, however, it was necessary to deviate from this protocol in some cases, due to reduced immunogen concentrations (Immunogens II, IV, VII and VIII) and/or amount available (Immunogen VIII). Any deviations from the protocol described are outlined in Table 5 below and highlighted in bold.
The appropriate antibody coating dilution was determined using standard ELISA checkerboard techniques. The plate was incubated overnight at 4° C., washed 4 times over 10 minutes with Tris buffered saline containing Tween 20 (TBST) and tapped dry. […] 75 μl of conjugate (appropriate hapten-HRP) diluted in Tris buffer (pH 7.2) containing EDTA, D-mannitol, sucrose, thimerosal and BSA, was added to each of the wells. The appropriate dilution of conjugate was also determined using standard ELISA checkerboard techniques. The plate was incubated at 25° C. for 1 hour. Excess unbound conjugate was removed by washing 6 times over a 10 minute period with TBST. 125 μl of tetramethylbenzidine (TMB) substrate solution was added to each well of the plate that was then incubated for 20 minutes in the dark at room temperature. The reaction was terminated by addition of 125 μl 0.2M H2SO4 to each well. The absorbance was then measured at 450 nm using a microtiter plate reader. The data are inputted to a computer program called ‘KC Junior’. It is a 4 parameter fit curve and allow the calculation of concentrations between the standard runs.
In a similar manner to that described above, the wells of a 96-well microtiter plate were coated with the IgG fraction of the antiserum raised to Immunogens I or II.
The data set out in Tables 7-10 are generated using antibodies raised against the indicated Immunogens in a competitive binding assay with the indicated tracers, using the indicated standards
Using the calibration curves generated and employing a single level of cross reactants, these were used to determine the cross-reactivity of each immunoassay with these substances. These are the standards used for the IC50 and cross-reactivity data generation: […]

[3] = test system: IgG fraction of antiserum raised to Immunogen IV; conditions: Antibody to Immunogen IV; cross-reactants at 100 ng/ml; 1000 ng/ml; standard JWH-018
[4] = test system: IgG fraction of antiserum raised to Immunogen VIII; conditions: Antibody to Immunogen VIII; cross-reactants at 100 ng/ml; 1000 ng/ml; standard JWH-018
[5] = test system: IgG fraction of antiserum raised to Immunogen VII; conditions: Antibody to Immunogen VII; cross-reactants at 100 ng/ml; 1000 ng/ml; standard JWH-015

Row | SMILES | % B/B0 [1] | % B/B0 [2] | % B/B0 [3] | % B/B0 [4] | % B/B0 [5]
1 | CCCCCn1cc(C(=O)c2cccc3cc(C)ccc23)c2ccccc21 [JWH 122 6-methylnaphthyl isomer] | 12.55% | 39.17% | 8.12% | 20.46% | 86.66%
2 | CCCCCn1cc(C(=O)c2ccc(C)c3ccccc23)c2ccccc21 [JWH-122] | 62.98% | 44.55% | 3.94% | 14.43% | 89.37%
3 | CCCCCCn1cc(C(=O)c2cccc3ccccc23)c2ccccc21 [JWH-019] | 7.22% | 15.42% | 21.96% | 74.50% | 70.05%
4 | O=C(c1cccc(I)c1)c1cn(CCCCCF)c2ccccc12 [AM-694 3-iodo isomer] | 31.37% | 48.58% | 37.20% | 12.71% | 89.49%
5 | CC(C)C(C)n1cc(C(=O)c2cccc3ccccc23)c2ccccc21 (single isomer, unassigned) [JWH 018 N-(1,2-dimethylpropyl) isomer] | 6.60% | 71.33% | 87.11% | 67.71% | 62.29%
6 | CCCCCn1cc(C(=O)c2cccc3c(OC)cccc23)c2ccccc21 [JWH-081 5-methoxynaphthyl isomer] | 18.51% | 60.90% | 6.24% | 26.56% | 94.16%
7 | O=C(c1cccc2ccccc12)c1cn(CCN2CCOCC2)c2cccc(O)c12 [JWH-200 4-hydroxyindole metabolite] | 44.97% | 78.17% | 87.88% | 91.82% | 91.15%
8 | O=C(c1ccccc1I)c1cn(CCCCCF)c2ccccc12 [AM-694] | 12.17% | 36.18% | 11.30% | 11.92% | 75.66%
9 | CCCCCCCn1cc(C(=O)c2cccc3ccccc23)c2ccccc21 [JWH-020] | 16.03% | 35.75% | 73.73% | 100.73% | 81.30%
10 | Cc1ccc(C(=O)c2cn(CCCCCO)c3ccccc23)c2ccccc12 [JWH-122 N-(5-hydroxypentyl) metabolite] | 42.80% | 71.76% | 25.72% | 48.67% | 83.65%
11 | CCCCn1c(C)c(C(=O)c2cccc3ccccc23)c2ccccc21 [JWH-016] | 20.71% | 68.73% | 91.14% | 75.24% | 19.31%
12 | CC(C)CCn1cc(C(=O)c2cccc3ccccc23)c2ccccc21 [JWH 018 N-(3-methylbutyl) isomer] | 3.16% | 30.38% | 12.75% | 53.29% | 48.81%
13 | CN1CCCCC1Cn1cc(C(=O)c2cccc3ccccc23)c2ccccc21 (centres unmarked) [AM-1220] | 4.45% | 77.46% | 86.93% | 106.65% | 49.71%
14 | CC(O)CCCn1cc(C(=O)c2cccc3ccccc23)c2ccccc21 (racemic) [(±)-JWH 018 N-(4-hydroxypentyl) metabolite] | 4.23% | 53.99% | 52.29% | 21.94% | 57.37%
15 | CC(O)CCn1cc(C(=O)c2cccc3ccccc23)c2ccccc21 (centres unmarked) [JWH-073 N-(3-hydroxybutyl) metabolite] | 3.10% | 54.52% | 53.52% | 94.04% | 43.39%
16 | CCCCCn1cc(C(=O)c2cccc3ccc(C)cc23)c2ccccc21 [JWH 122 7-methylnaphthyl isomer] | 36.46% | 38.28% | 13.48% | 38.48% | 92.44%
17 | CCCCn1cc(C(=O)c2cccc3ccccc23)c2cc(O)ccc21 [5-OH JWH-073, JWH-073 5-hydroxyindole metabolite] | 7.34% | 20.73% | 84.06% | 90.70% | 75.11%
18 | CCCCCn1cc(C(=O)c2ccccc2OC)c2ccccc21 [RCS-4 2-methoxy isomer] | 29.14% | 42.74% | 15.28% | 29.32% | 87.27%
19 | CCCCn1cc(C(=O)c2cccc3ccccc23)c2ccc(O)cc21 [6-OH JWH-073, JWH-073 6-hydroxyindole metabolite] | 5.93% | 28.03% | 74.89% | 93.52% | 61.83%
20 | O=C(c1cccc2ccccc12)c1cn(CCN2CCOCC2)c2cc(O)ccc12 [JWH-200 6-hydroxyindole metabolite] | 7.27% | 61.65% | 94.41% | 83.20% | 65.52%
21 | CCCCCCn1cc(C(=O)c2cccc3ccccc23)c2cc(O)ccc21 [JWH 019 5-hydroxyindole metabolite] | 19.81% | 17.34% | 93.84% | 101.57% | 87.58%
22 | CC(F)CCCn1cc(C(=O)c2cccc3ccccc23)c2ccccc21 (single isomer, unassigned) [AM-2201 N-(4-fluoropentyl) isomer] | 3.45% | 14.60% | 5.72% | 15.00% | 52.70%
